Measured values published in ChEMBL document CHEMBL1139540, “Replacement of Phe6, Phe7, and Phe11 of D-Trp8-somatostatin-14 with L-pyrazinylalanine. Predicted and observed effects on binding affinities at hSST2 and hSST4. An unexpected effect of the chirality of Trp8 on NMR spectra in methanol” (J Med Chem, 2005).
Bridge positions count the residues as written; N and C are the ends. Peptide text beside a SMILES is read from it.

Experiments:
[1] = target: T1, Somatostatin receptor type 4 (Homo sapiens, UniProt P31391); assay: Inhibition of human somatostatin receptor type 4
T1 sequence (P31391 whole entry): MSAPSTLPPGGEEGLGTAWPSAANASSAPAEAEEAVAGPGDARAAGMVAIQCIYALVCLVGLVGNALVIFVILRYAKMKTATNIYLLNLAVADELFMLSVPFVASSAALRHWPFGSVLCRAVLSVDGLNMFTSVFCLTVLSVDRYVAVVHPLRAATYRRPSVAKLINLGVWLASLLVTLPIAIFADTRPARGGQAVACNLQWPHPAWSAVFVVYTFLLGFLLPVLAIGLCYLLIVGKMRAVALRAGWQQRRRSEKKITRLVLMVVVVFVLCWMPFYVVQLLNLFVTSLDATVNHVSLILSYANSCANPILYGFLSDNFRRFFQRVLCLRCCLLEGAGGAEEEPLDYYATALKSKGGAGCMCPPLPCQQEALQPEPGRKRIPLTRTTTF

[2] = target: T2, Somatostatin receptor type 2 (Homo sapiens, UniProt P30874); assay: Inhibition of human somatostatin receptor type 2 (n=6)
T2 sequence (P30874 whole entry): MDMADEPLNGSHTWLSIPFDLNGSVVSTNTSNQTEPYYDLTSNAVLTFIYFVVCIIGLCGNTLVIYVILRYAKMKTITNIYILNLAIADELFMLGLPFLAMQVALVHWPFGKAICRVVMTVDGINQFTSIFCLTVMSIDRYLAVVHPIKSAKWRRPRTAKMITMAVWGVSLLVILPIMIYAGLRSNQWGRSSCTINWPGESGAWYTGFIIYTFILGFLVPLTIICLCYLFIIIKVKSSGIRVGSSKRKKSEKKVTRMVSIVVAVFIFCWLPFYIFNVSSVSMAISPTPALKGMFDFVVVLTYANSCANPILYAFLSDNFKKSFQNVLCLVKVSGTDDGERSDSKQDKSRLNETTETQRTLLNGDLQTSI

[3] = target: T2, Somatostatin receptor type 2; assay: Inhibition of human somatostatin receptor type 2
[4] = target: T1, Somatostatin receptor type 4; assay: Inhibition of human somatostatin receptor type 4 (n=5)

Ki [1] [nM] | Ki [2] [nM] | Ki [3] [nM] | Ki [4] [nM] | Compound
60 | 7 | 1 | 77 | C[C@H](N)C(=O)NCC(=O)N[C@H]1CSSC[C@@H](C(=O)O)NC(=O)[C@H](CO)NC(=O)[C@H]([C@@H](C)O)NC(=O)[C@H](Cc2ccccc2)NC(=O)[C@H]([C@@H](C)O)NC(=O)[C@H](CCCCN)NC(=O)[C@@H](Cc2c[nH]c3ccccc23)NC(=O)[C@H](Cc2ccccc2)NC(=O)[C@H](Cc2cnccn2)NC(=O)[C@H](CC(N)=O)NC(=O)[C@H](CCCCN)NC1=O
124 | – | 1 | – | C[C@H](N)C(=O)NCC(=O)N[C@H]1CSSC[C@@H](C(=O)O)NC(=O)[C@H](CO)NC(=O)[C@H]([C@@H](C)O)NC(=O)[C@H](Cc2cnccn2)NC(=O)[C@H]([C@@H](C)O)NC(=O)[C@H](CCCCN)NC(=O)[C@@H](Cc2c[nH]c3ccccc23)NC(=O)[C@H](Cc2ccccc2)NC(=O)[C@H](Cc2ccccc2)NC(=O)[C@H](CC(N)=O)NC(=O)[C@H](CCCCN)NC1=O
700 | – | > 1000 | – | C[C@H](N)C(=O)NCC(=O)N[C@H]1CSSC[C@@H](C(=O)O)NC(=O)[C@H](CO)NC(=O)[C@H]([C@@H](C)O)NC(=O)[C@H](Cc2ccccc2)NC(=O)[C@H]([C@@H](C)O)NC(=O)[C@H](CCCCN)NC(=O)[C@@H](Cc2c[nH]c3ccccc23)NC(=O)[C@H](Cc2cnccn2)NC(=O)[C@H](Cc2ccccc2)NC(=O)[C@H](CC(N)=O)NC(=O)[C@H](CCCCN)NC1=O
< 1 | – | – | – | C[C@H](N)C(=O)NCC(=O)N[C@H]1CSSC[C@@H](C(N)=O)NC(=O)[C@H](CO)NC(=O)[C@H]([C@@H](C)O)NC(=O)[C@H](C)NC(=O)[C@H]([C@@H](C)O)NC(=O)[C@H](CCCCN)NC(=O)[C@H](Cc2c[nH]c3ccccc23)NC(=O)[C@H](Cc2ccccc2)NC(=O)[C@H](Cc2ccccc2)NC(=O)[C@H](CC(N)=O)NC(=O)[C@H](CCCCN)NC1=O (H-AGCKNFFWKTATSC-NH2; disulfide 3-14)
80 | – | – | – | C[C@H](N)C(=O)NCC(=O)N[C@H]1CSSC[C@@H](C(N)=O)NC(=O)[C@H](CO)NC(=O)[C@H]([C@@H](C)O)NC(=O)[C@H](Cc2ccccc2)NC(=O)[C@H]([C@@H](C)O)NC(=O)[C@H](CCCCN)NC(=O)[C@H](Cc2c[nH]c3ccccc23)NC(=O)[C@H](Cc2ccccc2)NC(=O)[C@H](C)NC(=O)[C@H](CC(N)=O)NC(=O)[C@H](CCCCN)NC1=O (H-AGCKNAFWKTFTSC-NH2; disulfide 3-14)
